Measurements: patent US20200362303A1, “MAINTENANCE-AND-AMPLIFICATION METHOD AND DIFFERENTIATION INDUCTION METHOD FOR PRIMORDIAL GERM CELLS/PRIMORDIAL GERM CELL-LIKE CELLS” (KYOTO UNIVERSITY, priority 2017, published 2020)

Assays:
[1] = system: PGCLC induced from BVSCDT ESC(XY); test: Screening for factors inducing female germ cell fate: DT and BV expression by FACS at c7; assay type: cell-based, mouse; details: added from c3, read at c7; RA 100 nM, cytokines 500 ng/ml; BMPs in combination with RA
Experimental: (§1) The PGC/PGCLC expansion medium was constituted of 10% KSR, 2.5% FBS, 0.1 mM NEAA, 1 mM sodium pyruvate, 2 mM L-glutamine, 0.1 mM 2-mercaptoethanol, 100 U/ml penicillin, 0.1 mg/ml […] streptomycin, […] forskolin, and 10 μM rolipram. The entire medium was changed every 2 days from c3. Cytokines/compounds for induction of female fate were provided from c3 to the end of culture. RA and BMP concentrations used were 100 nM and 300 ng/ml, respectively, unless otherwise specified. Brightfield and fluorescence images were captured using an IX73 inverted microscope (Olympus).
(§2) The preparation of d4/c0 PGCLC for FACS is described in “ESC culture/induction and PGCLC induction/culture”. To isolate germ cells in vivo, fetal gonads of BVSC, VR or SG mice were cut and processed for FACS according to the procedure described for d4/c0 PGCLC. Culture PGCLC was also prepared by the same method except that, after dissociation, the cells were washed with 0.1% BSA-DMEM containing 100 μg/ml DNase (Sigma-Aldrich), lysed DNA from dead cells was digested to prevent the formation of cell/debris clumps. Fluorescent activity of BV/SG, SC, or DT/VR was detected with FITC, Horizon V500 or PE-Texas Red channels, respectively. FACS data was analyzed using FlowJo or FACS Diva software package.
In the signal inhibitory experiment, LDN193189 (#04-0074; Stemgent) and BMS493 (B6688; Sigma-Aldrich) dissolved in DMSO were used as ALK2/3 inhibitor and RAR inhibitor, respectively.

[2] = system: PGCLCs induced from BVSCVR ESC (XX); test: BVSC and VR expression by FACS in cultured PGCLC; assay type: cell-based, mouse; details: added at c3, read at c9; varying concentrations
Experimental: as §1, §2

cultured PGCLC [3] = test: Immunofluorescence analysis of STRA8, SCP3, DDX4 in cultured PGCLC; assay type: cell-based, mouse
Experimental: as §1
(§3) Immunofluorescence (IF) analysis was performed as described previously (Hayashi et al, 2012). The following primary antibodies were used: chicken anti-GFP (ab13970; Abeam), rabbit anti-DDX4 (ab13840; Abeam), mouse anti-DDX4 (ab27591; Abeam), rabbit anti-DAZL (ab34129; Abeam), goat anti-DAZL (sc-27333; Santa Cruz), rabbit anti-STRA8 (ab49602; Abeam), mouse anti-SYCP3 (ab97672; Abeam) and rabbit anti-TEX14 (ab41733; Abeam)IgG. The following secondary antibodies were used: Alexa Fluor 488-goat anti-mouse or chicken IgG; Alexa Fluor 568-goat anti-rabbit IgG and Alexa Fluor 633-goat anti-mouse, anti-chicken IgG; Alexa Fluor 488-donkey anti-mouse IgG; Alexa Fluor 568-donkey anti-rabbit IgG and Alexa Fluor 633-donkey anti-goat IgG. IF images were acquired using a confocal microscope [FV1000 (Olympus) or LSM780 (Zeiss)].

BV/SC(+) cells = test: Cell cycle analysis by EdU and 7AAD uptake in PGCLC culture; assay type: cell-based, mouse; details: RA alone; c9
Experimental: Cell cycle analysis was performed using the Click-iT EdU Flow Cytometry Assay Kit (C10424; Thermo Fischer Scientific) according to the manufacturer's instructions. Cultured PGCLC was treated with 10 μg/ml EdU for 30 min to 2 hr and analyzed by FACS.

PGC at E11.5 = test: Ex vivo culture of E11.5 PGC, SCP3/DDX4/SG expression at c4; assay type: cell-based, mouse; details: cultured 4 days; RA alone
Experimental: as §3

BV (+) d4 PGCLCs = test: Compound library screening for PGCLC proliferation (BV fluorescence by cell analyzer); assay type: cell-based, mouse; details: three CsA entries in the screening data, two exceeded; 10 μM and 1 μM
Experimental: d4 PGCLC was seeded by FACS on m220-5 feeders in 96-well plates and BV fluorescence was monitored by cell analyzer (Cellavista; SynenTec). Fluorescence photograph for BV was taken by Cellavista cell analyzer with the following settings: 10× objectives; exposure time: 140 μsec; gain: 4×; binning: 4×4; excitation: 500/24 nm; emission: 542/27 nm. BV fluorescence was detected using the following algorithm/attribute parameters: sensitivity: 10; region merging: 200; min. granule intensity: 50; well edge distance: 200; contrast: 1; size: 3,000; intensity: 255; roughness: 500; granularity: 100; granule intensity: 255; granule count: 10,000; longishness: 100; compactness: 1. The value of “cell nucleus” was used for the detection of BV fluorescence.
The compound library was screened at concentrations of 10 μM and 1 μM. […] 200 BV (+) d4 PGCLCs induced from BDF1-2 ESC were seeded in the wells of a 96-well plate, and BV fluorescence was measured on the Cellavista cell analyzer on day 1 of culture (c1), c3, c5 and c7. The value of “cell nucleus” was used for the detection of BV fluorescence. […] For each compound, the fold difference in BV fluorescence between c1 and c7 was calculated for each compound and compounds with a fold difference value exceeding 3SD of the mean of the negative control were identified as those that potentiate PGCLC proliferation.

d4 PGCLC = test: Expansion culture of d4 PGCLC on m220-5 feeder (cell number fold increase); assay type: cell-based, mouse
Experimental: (§4) Since the m220-5 feeder treated with MMC was vulnerable to forskolin and rolipram, m220-5 cells were subcultured 3 times with both forskolin and rolipram each at 10 μM and adapted to these compounds before MMC treatment (1-2 μg/ml for 2 hr). d4 PGCLC or E9.5 PGC(BDF1×Stella-EGFP) was selected by FACS, and the cells were seeded on m220-5 cells in GMEM medium containing 10% KSR, 0.1 mM NEAA, 1 mM sodium pyruvate, 0.1 mM 2-mercaptoethanol, 100 U/ml penicillin, 0.1 mg/ml streptomycin, 2 mM L-glutamine, 2.5% FCS, 100 ng/ml SCF, 10 μM forskolin, and 10 μM rolipram. Half of the culture medium was changed every 2 days.
(§5) Expansion culture of PGC/PGCLC to investigate the combined effect of cyclosporin A (CsA) was performed as in Example [I], except that 5 μM CsA was added to the medium in addition to 10 μM forskolin and 10 μM loripram (FR10).

E9.5 PGC = test: Expansion culture of E9.5 PGC on m220-5 feeder; assay type: cell-based, mouse; details: CsA in addition to forskolin and PDE4 inhibitor (FR10)
Experimental: as §4, §5

cultured PGCLC [4] = test: Cell cycle analysis of cultured PGCLC (BrdU/EdU, FACS); assay type: cell-based, mouse; details: FR10+CsA compared to FR10 alone
Experimental: The cell cycle status of ESC, EpiLC, d4, d4c3, d4c5 and d4c7 PGCLC(BDF1-2) at E13.5, E14.5 and E15.5 and male germ cells was examined in the same manner as in a previous report (Kagiwada et al, 2013). To label the cultured cells, the cells were incubated with BrdU (10 μM) for 30 min. To label gem cells, female mice (ICR) were mated with Stella-EGFP males and pregnant females were intraperitoneally injected with 1 mg BrdU and embryos were harvested 30 min later. Cultured cells or male gonads were dispersed in single cells by TrypLE treatment. To detect BrdU uptake, the APC-BrdU Flow Kit (BD Biosciences) was used according to the manufacturer's instructions. The stained samples were analyzed using BD FACSAriaIII (BD) with FACS Diva (BD) software, and PGCLC or male gem cells were respectively identified by BV or Stella-EGFP fluorescence. Three biological replicates were analyzed for each sample.
The analysis was performed as in Example [I] except that EdU (10 μM) was used in place of BrdU, and Click-iT™ Plus EdU Alexa Fluor™ 647 Flow Cytometry Assay Kit (Thermo Fisher Scientific) was used for detection of EdU uptake.

PGCLC = test: CsA or FK506 alone at various concentrations on PGCLC proliferation (fold difference d7/d1); assay type: cell-based, mouse; details: 10, 5, 1, 0 μM tested, without FR10
d4c7 PGCLC = test: Detection of apoptotic cells (Annexin V); assay type: cell-based, mouse; details: FR10+CsA compared to FR10 alone
Experimental: d4c7 PGCLC cultured in FR10 or FR10+CsA was dispersed in single cells by TrypLE treatment, and stained using Annexin V Apoptosis Detection Kit APC (eBioscience) according to the manufacturer's instructions. The stained samples were analyzed using BD FACSAriaIII (BD) with FACSDiva (BD) software, and PGCLC was identified by BV fluorescence. Three biological replicates were analyzed for each sample.

[5] = system: testes of neonatal W/Wv mice; test: Transplantation of amplified PGCLC into testes of neonatal W/Wv mice (spermatogenesis, offspring); assay type: in vivo, mouse; details: d4c7 PGCLC; neonatal W/Wv recipients
Experimental: After purification of PGCLC by FACS, 1×10^4-1×10^5 cells per testis were injected into the testes of randomly selected neonatal (7 days old) or adult W/W^v mouse, as previously reported (Chuma et al, 2005). Where necessary, anti-mouse CD4 antibody ([…] per dose, clone GK1.5; Biolegend) was injected intraperitoneally on day 0, 2 or 4 for immunosuppression (Kanatsu-Shinohara et al, 2003). To assess pregnancy, recipients at 10 weeks post-transplant were mated with BDF1 females. The genotype of BVSC transgene progeny was determined as previously reported (Ohinata et al, 2008). For HE staining, testis or epididymis was fixed with Bouin's solution and embedded in paraffin, and sections were produced.
Spermatozoons were collected from the cauda epididymis and pre-incubated in HTF medium (Kyudo Co., Ltd.) for 1 hr at 37° C. Eggs were collected from BDF1 females that were superovulated by injecting PMSG and hCG and fertilized with sperm in HTF medium. The obtained 2-cell embryos were transferred to the fallopian tube of pseudopregnant ICR females 0.5 days after pregnancy (dpc). Pups were delivered by cesarean section at 18.5 dpc.
Spermatozoons were collected from the mouse testis that received transplantation of PGCLC by the method described in Example [I], and directly injected with a micromanipulator into the ovum collected from BDF1 females that were superovulated by injecting PMSG and hCG. […]

Row | Compound | DT and BV expression in BV (+) cells [1] | BVSC and VR expression [2] | BV/SC(+) cells expressing STRA8 (cultured PGCLC [3]; RA alone) [%] | induction of VR/DDX4 and SCP3 (+) cells (meiotic entry) (cultured PGCLC [3]; cultured PGCLC, c9, BMP4, 5, 7 combined with RA, BMS493 with BMP2, LDN193189 with RA and BMP2) | entry into meiosis by cell cycle profile (BV/SC(+) cells) | induction of SCP3 (PGC at E11.5) | fold difference (d7/d1) of BV signal in compound library screening (BV (+) d4 PGCLCs) [SD] | proliferation of PGCLC on average with CsA added (d4 PGCLC; 5 μM CsA in addition to forskolin and PDE4 inhibitor (FR10)) | colony morphology and BVSC expression of expanded cells (d4 PGCLC; expansion culture on m220 feeder) | proliferation of E9.5 PGC with CsA added (E9.5 PGC) | percentage of S-stage cells (cultured PGCLC [4]) | most optimal concentration for growing PGCLCs (PGCLC) [µM] | percentage of apoptotic cells (d4c7 PGCLC) | function of amplified PGCLC after transplantation into testes [5]
1 | CC1=C(/C=C/C(C)=C/C=C/C(C)=C/C(=O)O)C(C)(C)CCC1 [RA, all trans retinoic acid] | increased DT levels | did not activate VR | ~77.7 | did not activate VR/DDX4 or SCP3 | did not go into meiosis even in c9 | Neither control culture nor culture with RA alone induced SCP3 |  |  |  |  |  |  |  | 
2 | cyclo{-[(2S,3R,4R,6E)-3-hydroxy-4-methyl-2-methylaminooct-6-enoyl]-L-2-aminobutanoyl-N-methylglycyl-N-methyl-L-leucyl-L-valyl-N-methyl-L-leucyl-L-alanyl-D-alanyl-N-methyl-L-leucyl-N-methyl-L-leucyl-N-methyl-L-valyl-} [CsA] |  |  |  |  |  |  | > 3 | about 50 fold | formed flat colonies and strongly expressed BVSCs | about 16 fold | increased percentage of S-stage | 5 | decreased percentage of apoptotic cells | capable of differentiating into functional spermatozoa
